No end group written: not given here.
Tests used:
[1] = test system: C2C12 cells; assay: Myodifferentiation, Giemsa staining, root canal formation and fusion index; type: cell-based, mouse; settings: 3 days
Procedure: When C2C12 cells were 70% grown, media were replaced with myodifferentiation medium added with MSTN protein (1 ng), Ac-MIF1 (1000 nM), and Ac-MIF1 (1000 nM)+MSTN protein (1 ng) from proliferation medium, followed by culture for 3 days.
When the cells grew more than 70% for differentiation of myoblasts into myocytes, they were cultured for 3 days by replacing with a differentiation medium (DMEM+2% FBS+1% P/S). The medium was replaced once daily, and the cells were cultured at 37° C.
The cell medium was removed, and the cells were washed with PBS. After washing, a methanol:PBS reagent in a 1:1 volume ratio was treated, followed by fixation for 2 minutes. Additionally, after a methanol:PBS reagent in a 2:1 volume ratio was added, fixation was followed for additional 2 minutes. After 2 minutes, 0.04% Giemsa reagent was added, and then the cells were left for 30 minutes, washed with PBS after 30 minutes, and observed under a microscope, with 3 photographs taken for each cell (300×). In the photographs taken, the number of fused nuclei in the root canal cells was counted, the number of nuclei of total cells was counted, and the number of fused nuclei was divided by the number of nuclei of the total cells to obtain the % value.

[2] = test system: C2C12 cells; assay: mRNA expression of myodifferentiation and sarcopenia factors (real-time PCR); type: cell-based, mouse; settings: C2C12 myodifferentiation, peptide-treated vs untreated
Procedure: After adding 1 ml of TRIzol™ reagent, the cells were crushed using a sonicator. After centrifugation of the crushed sample (12,000 rpm, 10 min, 4° C.), the supernatant was transferred to a new tube, added with 200 μl of chloroform, and left at room temperature for 10 minutes. After 10 minutes, centrifugation (12,000 rpm, 10 min, 4° C.) was performed, yielded a transparent supernatant. Next, 500 μl of isopropanol was added, the mixture was left for 10 minutes, and centrifugation was performed to obtain RNA pellets. After washing by adding 70% ethanol (distilled water treated with ethanol+diethylpyrocarbonate (hereinafter referred to as DEPC)) to the RNA pellets, complete removal and drying were followed. The dried transparent RNA was added with DEPC-treated distilled water and then stored at −80° C. Total RNA volume was measured by nanodrop, and the 18s and 28s bands were detected in 1.2% agarose gel. cDNA was synthesized with 2 μg of total RNA, random hexamer primers, and reverse transcriptase (25° C.: 10 min, 37° C.: 120 min, 85° C.: 5 min).
Real-time PCR (RT-PCR) was performed for detecting gene expression. For observation of real-time gene expression, gene expression was analyzed using the Power SYBR Green PCR Master Mix, which includes fluorescent materials of SYBR green (7500 Real-time PCR system). The PCR primer was designed with Primer 3 software (http://frodo.wi.mit.edu) according to the nucleotide sequence secured from NCBI GenBank. PCR was performed 40 times at 95° C. for 10 minutes, again at 95° C. for 33 seconds, at gene primer temperature (tm) for 33 seconds, and at 72° C. for 33 seconds. Gene expression values were analyzed through the analysis of c(t) values obtained through real-time PCR analysis (fold change 2-^ΔΔCt formula). Setting the gene expression value of the untreated cells to 1, the gene expression value of the treated cells was calculated. In the analysis of gene c(t) values, normalization was conducted with the glyceraldehyde-3-phosphate dehydrogenase (GAPDH).

[3] = test system: C57BL/6 mice; assay: Myoregeneration effect upon injection of Ac-MIF1 peptide in cardiotoxin-damaged gastrocnemius; type: in vivo, mouse
Description: The male C57BL/6 mice were purchased from Dae Han Bio Link Co., Ltd., four of which per cage were kept in a temperature-controlled room with a 12-hour light cycle. The animals were fed with a standard rodent diet containing 4.0% (wt/wt) total fat (Rodent NIH-31 Open Formula Auto; Zeigler Bros., Inc., Gardners, PA, USA) and water. All experiments involving animals complied with the guidelines (YUMC-AEC2015-006) issued by the Animal Control Committee of Youngnam University's Animal Research Institute. The MSTN knock-out mouse was provided by a laboratory at Seoul National University. Normal, MSTN+/− (heterozygous), and MSTN−/− (homozygous) adipose tissues were fixed by collecting from 6-week-old mice and stored at −80° C. until required for analysis.
Muscle tissues containing paraffin was subjected to deparaffinization with xylene and ethanol and hydration, respectively, and the tissue was soaked in 0.3% hydrogen peroxide water (H2O2)/methanol for 15 minutes to stop endogenous peroxidase activity. Then, tissues were stained with hematoxylin/eosin for morphological observation or reacted with 1% normal goat serum at room temperature for 1 hour to block a reaction with non-specific antibodies, followed by a reaction with the primary antibody (1:50) at 4° C. for over 16 hours. After 16 hours, washing was performed 3 times with PBS, followed by a reaction with secondary antibody (1:100) with HRP conjugated at room temperature for 1 hour. Horse radish peroxidase-conjugated streptavidin was added to detect the expression of the protein, followed by observation under a microscope.
In order to observe the myoregeneration effect following MIF peptide injection, mice were injected with Ac-MIF 1 peptide and injected/uninjected with cardiotoxin (hereinafter referred to as CTX) into the muscle, followed by observation of the morphology and regeneration of the muscle. A day after C57BL/6 mice were injected with Ac-MIF1 peptide (1.125 mM), […] cardiotoxin was injected into the gastrocnemius. Muscle tissues were sampled 7 days after CTX injection.
Paraffin-embedded muscle sections were deparaffinized using xylene, rehydrated using a concentration gradient of ethanol, stained with hematoxylin and eosin, observed under an optical microscope, magnified at 400× scale, and photographed, followed by measurement of the diameter of muscle fibers using Image J software.

[4] = muscle injected with Ac-MIF1 peptide, 7 days after CTX, FIG. 10A
[5] = muscle injected with Ac-MIF1 peptide, 7 days after CTX, FIG. 10B

## Ac-VDFEAFWDWG [Ac-MIF1, MIF1 with N-terminus acetylated, 10 mer]
[1]; C2C12, differentiation medium including peptide
  fusion index, increase compared to untreated cells: 11%
[1]; C2C12, differentiation medium
  root canal formation compared to untreated cells: increased
[1]; C2C12, muscle differentiation medium, Ac-MIF1 1000 nM, FIG. 9
  fusion index compared to untreated cells: increased
[2]
  MYL2 mRNA expression: increased
  MYOD mRNA expression: increased
[3]; 7 days after CTX injection
  muscle weight compared to muscle without injection: no significant difference
[3]; CTX + Ac-MIF 1, gastrocnemius, 7 days after CTX injection
  muscle weight: 0.140 ± 0.003 g
[3]; [4]
  MSTN mRNA expression in muscle: increased
  MYL2 mRNA expression in muscle: increased
  MYOD mRNA expression in muscle: increased
[3]; [5]
  MYL2 protein expression in muscle: increased
  MYOD protein expression in muscle: increased
  MYOG protein expression in muscle: increased
  Pax7 protein expression in muscle: increased
[3]; muscle injected with Ac-MIF1 peptide, 7 days after CTX, FIG. 10C
  diameter of the muscle fibers compared to without peptide injection: increased

Reference: US20250090626A1, “NEW PEPTIDE AND USES THEREOF” (Neo Cremar Co., Ltd., priority 2021, published 2025)
